From patent publication US11167046B2, “IR dyes for fluorescence imaging” (LI-COR, INC., priority 2014, dated 2021)
Like-named read-outs stand apart in the source and are kept apart here.

How the values were obtained:
[1] = Elimination routes in mice: serial whole animal imaging and organ imaging; assay type: in vivo, nude mice; settings: for plasma protein binding: inferred from liver retention / clearance; for excretion / elimination route: 1 nmole by tail vein injection; for signal in kidneys and liver, organ 1/10th LUT scale: organs harvested after 24 hours, 1 nmole tail vein
Method: This example describes an experiment to evaluate the excretion of the dyes described herein from animals injected with such. The dyes tested were stable cyanine dyes (IRdyes): 800CW, 800BK-sulfonate (compound of Formula 1; 800BK or BK) and 800BK-NOS (compound of Formula 2; 800NOS or NOS). In this study 12 nude mice (3 per treatment group) were injected with either (1) no probe (control group); (2) 800CW; (3) 800NOS; or (4) 800BK. The three probes (800CW-1166 g/mole (should have been 1091.1 g/mole), 800NOS-1011.09 g/mole, and 800BK-1113.14 g/mole) were dissolved in PBS. A spot test of the three probes was performed to detect the fluorescent signal when diluted to the injection dose of 1 nmole/100 μl (FIG. 12).
The mice received 1 nmole of dye by tail vein injection. The mice were imaged serially over 24 hours after IV injection: 5 minutes, 1 hour, 2 hours, 4 hours, 6 hours and 24 hours after injection. A representative series of images are presented in FIGS. 13A-13C of one animal per dye. All the data was normalized to the same LUT. A control mouse (no probe) was used as a reference (no signal control). Imaging was performed using the Pearl® Trilogy Imaging System (LI-COR®).
The mice were then sacrificed and their organs and tissue (i.e., liver, kidney, lungs, spleen and muscle) were harvested. The organs were imaged to detect fluorescence. When the same LUT was used for the animal and organ images, fluorescence in the organs was not detectable. As such, the low end of the animal scale was expanded such that the images of the organs could be evaluated (FIG. 14). For example, the “Organs 1/10th scale” was used for the images of FIGS. 15A-15D and the “Organs 1/100th scales was used for the images of FIGS. 16A-16D.

[2] = Excised organs imaged at 24 hrs; assay type: in vivo, nude mice; settings: for detected in the brain: excised organs at 24 hrs
Method: (§1) Animals injected with the probes were imaged over time using the 800 fluorescence channel of the Pearl Impulse Imaging System (LI-COR Biosciences). Clearance profiles for 800CW, the compound of Formula 1, and the compound of Formula 2 were carried out in nude mice (dose of 1 nmole for all compounds). Serial images and excised organs were evaluated over a 24 hr period. A Pearl Impulse small animal imaging system was used for all animal and organ image acquisitions.
Organs were excised at 24 hrs and imaged.

[3] = mouse, in vivo
[4] = Excised organ evaluation at 24 hrs and 72 hrs; assay type: in vivo, mouse
Description: FIGS. 11A-11H show images of various mouse organs after administration. Fluorescence images of various mouse organs at 24 and 72 hrs post-administration for the comparative control (FIG. 11A), compound of Formula 1 (FIGS. 11C and 11E) and compound of Formula 2 (FIGS. 11B and 11D). Organs examined included: heart (Ht), lungs (Ln), kidney (Kd), liver (Lv), spleen (Spl), intestine (Int), brain (Br), and muscle (Ms). […] FIGS. 11F-11H show intraoperative fluorescence (800 nm, compound of Formula 2) (FIG. 11G), white light (FIG. 11F), and composite images of the liver, gall bladder, and bile duct for compound of Formula 2 (0.1 nmole) (FIG. 11H).
Fluorescent signal intensities of various organs were examined at 24 hrs and 72 hrs for the compound of Formula 1 and the compound of Formula 2 (FIG. 11A-11E). Organs examined included: heart (Ht), lungs (Ln), kidney (Kd), liver (Lv), spleen (Spl), intestine (Int), brain (Br), and muscle (Ms).

A549 cells = experiment: In vitro cell-based assay of non-specific binding, A549 cells; settings: dyes compared to 800CW
Description: (§2) FIGS. 2A, and 2B illustrate in vitro cell-based analyses for A549 cells (A) and A431 cells (B).
(§3) In vitro cell-based assays with two carcinoma cell lines (A431 and A549) were done to assess non-specific binding of the compound of Formula 1 and the compound of Formula 2. The dyes were compared to 800CW.
(§4) The fluorescence in each well was quantified with the instrument software.

[5] = Solubility in water or aqueous media; assay type: physicochemical; settings: for concentration when re-suspended in water: in some embodiments; for solubility in water: stated as 'can be'
[6] = Excitation and emission of the NIR imaging probe; assay type: physicochemical
Description: The NIR imaging probe used was the compound of Formula 1; excitation 773 nm and emission 790 nm or independently, Formula 2, excitation 772 nm and emission 787 nm.

A431 cells = experiment: In vitro cell-based assay of non-specific binding, A431 cells; settings: dyes compared to 800CW
Description: as §2, §3, §4

[7] = Clearance profiles by whole-animal fluorescence imaging (dorsal and ventral) in nude mice; assay type: in vivo
Method: as §1
Non-invasive imaging will not capture signals for the full depth of the animal but the intensity values are useful to show a relative trend.
Another way of examining fluorescence signals is by measuring the % of the compound remaining at a particular time point. The 30 min time point is the baseline to which other time points are normalized.
The percent signal remaining at each time is shown with the 30 min time point post-injection, which is used as the baseline.

[8] = Biliary tract imaging, comparison with ICG and dose response; assay type: in vivo, mouse; settings: for time post-intravenous administration by which gall bladder is visible: continues visible at 2 hrs and 5 hrs
Method: A Pearl Impulse small animal imaging system was used for all animal and organ image acquisitions.
A comparison of the dose responses for the compound of Formula 2 are shown in FIG. 10B (1 nmole), FIG. 10C (0.5 nmole), and FIGS. 10D and 10E (0.1 nmole) at time periods of 1 min, 30 min, 2 hrs, 5 hrs, and 24 hrs. All images are presented using the same LUT table except FIG. 10E where the LUT for FIG. 10D has been reduced to brighten the 800 nm signal so they are visible.

[9] = Fluorescent signal analysis of mouse urine; settings: urine extracted with acetonitrile:methanol; Odyssey CLx, 800 nm
[10] = 30 min post-injection (baseline), 1 nmole, whole body, ventral view
[11] = 120 min post-injection, normalized to 30 min, 1 nmole
[12] = 300 min post-injection, normalized to 30 min, 1 nmole
[13] = 1440 min post-injection, normalized to 30 min, 1 nmole

signal in kidneys and liver, organ 1/10th LUT scale [1] | detected in the brain [2] | fluorescent signal in excised organs ([4]; 24 hrs post administration) | fluorescent signal in excised organs ([4]; 72 hrs post administration) | concentration when re-suspended in water [5] | solubility in water [5] | emission [6] [nm] | excitation [6] [nm] | clearance pattern (route), ventral images ([7]; 1 nmole) | percent signal remaining [7, 10] [%] | percent signal remaining [7, 11] [%] | percent signal remaining [7, 12] [%] | percent signal remaining [7, 13] [%] | Structure (SMILES) | plasma protein binding [1] | retention time in the liver ([1]; nude mice, 1 nmole IV) | excretion / elimination route ([1]; nude mice) | non-specific binding (A549 cells) | non-specific binding (A431 cells) | other results
detectable signal | None | some signal in the liver and kidney | diminished substantially | at least 200 mg/mL | highly soluble in water | 787 | 772 | clears through the liver | 100 | 70 | 14 | 1.4 | CC1(C)C(/C=C/C2=C(Oc3ccccc3)C(=C/C=C3/N(CCCCS(=O)(=O)O)c4ccc(S(=O)(=O)[O-])cc4C3(C)C)/CCC2)=[N+](CCCCS(=O)(=O)O)c2ccc(S(=O)(=O)O)cc21 [Compound of Formula 2, 2-((E)-2-((E)-3-(2-((E)-3,3-dimethyl-5-sulfonato-1-(4-sulfonatobutyl)indolin-2-ylidene)ethylidene)-2-phenoxycyclohex-1-en-1-yl)vinyl)-3,3-dimethyl-1-(4-sulfonatobutyl)-3H-indol-1-ium-5-sulfonate] | low plasma protein binding activity | very short retention time in the liver | eliminated from the body via the biliary tract (liver, gall bladder and bile ducts) and intestines | significant increase in non-specific binding compared to either the compound of Formula 1 and 800CW by two-fold | significant increase in non-specific binding compared to either the compound of Formula 1 and 800CW by two-fold | intestinal signal ([1]; 24 hours post injection): barely detectable; clearance from the whole body to the biliary system ([1]; nude mice, 1 nmole IV): rapid; excretion into the intestines ([1]; nude mice, 1 nmole IV): rapid excretion into the intestines; time at which the liver was visible ([1]; nude mice, 1 nmole IV): 15 min; time during which predominant signal was in the intestines ([1]; nude mice, 1 nmole IV): 2 to 6 h; liver signals, excised organs ([2]; 24 hrs post injection): lower liver signals at 24 hrs when compared to 800CW and the compound of Formula 1; fluorescent signal in urine [3]: slight fluorescence; percent signal remaining ([7]; 120 min post-injection, normalized to 30 min, 1 nmole, listed as compound of Formula 2): greatest reduction; fluorescence signal, dorsal view ([7]; 2 hrs post injection, 1 nmole): high signal, emanating in the liver region; whole body signal ([7]; 5 hr post injection, 1 nmole): low compared to 800CW and the compound of Formula 1; whole body fluorescence signal ([7]; ventral view, 1 nmole): lower overall than the signal for 800CW and the compound of Formula 1; detection signal in images ([8]; 0.1 nmole dose, same scale as 1 nmole and 0.5 nmole series): very low detection signal; gall bladder target region visibility ([8]; 0.1 nmole dose, scale adjusted (FIG. 10E)): visible on a very low background; time post-intravenous administration by which gall bladder is visible ([8]; 0.5 nmole dose): ≤ 30 min; time post-intravenous administration by which gall bladder is visible ([8]; 1 nmole dose): ≤ 30 min
– | – | – | – | – | – | – | – | – | – | – | – | – | CC1(C)C(/C=C/C=C/C=C/C=C2/N(CCCCS(=O)(=O)[O-])c3ccc4ccccc4c3C2(C)C)=[N+](CCCCS(=O)(=O)[O-])c2ccc3ccccc3c21.[Na+] [ICG, indocyanine green] | – | – | – | – | – | fluorescent signal in urine [9]: No fluorescent signal
detectable signal | None | some signal in the liver and kidney | diminished substantially | at least 200 mg/mL | highly soluble in water | 790 | 773 | clear rapidly via the kidney | 100 | 81 | 19 | 1.4 | CC1(C)C(/C=C/C2=C(Oc3ccc(S(=O)(=O)O)cc3)C(=C/C=C3/N(CCCCS(=O)(=O)O)c4ccc(S(=O)(=O)[O-])cc4C3(C)C)/CCC2)=[N+](CCCCS(=O)(=O)O)c2ccc(S(=O)(=O)O)cc21 [Compound of Formula 1, 2-((E)-2-((E)-3-(2-((E)-3,3-dimethyl-5-sulfonato-1-(4-sulfonatobutyl)indolin-2-ylidene)ethylidene)-2-(4-sulfonatophenoxy)cyclohex-1-en-1-yl)vinyl)-3,3-dimethyl-1-(4-sulfonatobutyl)-3H-indol-1-ium-5-sulfonate] | increased (higher) plasma protein binding of 800BK than 800CW | longer retention time in the liver compared to 800CW and 800NOS | excreted renally | more comparable to 800CW | more comparable to 800CW | signal in the liver ([1]; excised organs, 24 hours): higher signal compared to 800CW; retention in liver and kidney, excised organs ([2]; 24 hrs post injection): retained at higher levels in the liver and kidney compared to the compound of Formula 2; primary elimination route [3]: renal; bladder signal, ventral images ([7]; 1 nmole): strongest signal; movement through tissues and retention in organs ([7]; in vivo data): moves rapidly through the tissues but is retained for an extended period in organs; clearance (whole body fluorescence) compared to compound of Formula 2 ([7]; ventral view, 1 nmole): slower clearance
